According to PubChem BioAssay (NCI):
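Following 48 hours of exposure in 96-well plates, responses at five concentrations were used to interpolate endpoints linearly. TGI: total growth inhibition.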

What was measured:
Assay in all cases: NCI-60 cell line screen, 48 h
[1] = system: SF-295 CNS
[2] = system: KM12 colon
[3] = system: MDA-MB-435
[4] = system: OVCAR-3 ovarian
[5] = system: UO-31 renal
[6] = system: MCF7 breast
[7] = system: LOX IMVI melanoma
[8] = system: SK-MEL-5 melanoma
[9] = system: DU-145 prostate
[10] = system: SK-OV-3 ovarian
[11] = system: MDA-MB-231 breast
[12] = system: U251 CNS
[13] = system: HT29 colon
[14] = system: SNB-19 CNS
[15] = system: MOLT-4 leukemia
[16] = system: SK-MEL-28 melanoma
[17] = system: OVCAR-5 ovarian
[18] = system: PC-3 prostate
[19] = system: SF-539 CNS
[20] = system: BT-549 breast
[21] = system: EKVX NSCLC
[22] = system: TK-10 renal
[23] = system: 786-0 renal
[24] = system: HCC-2998 colon
[25] = system: ACHN renal
[26] = system: HCT-15 colon
[27] = system: NCI-H226 lung
[28] = system: HOP-92 NSCLC
[29] = system: SN12C renal
[30] = system: HOP-62 NSCLC
[31] = system: UACC-62 melanoma
[32] = system: T-47D breast
[33] = system: A549 NSCLC
[34] = system: NCI-H23 lung
[35] = system: NCI-H460 lung
[36] = system: UACC-257 melanoma
[37] = system: HL-60(TB) leukemia
[38] = system: SNB-75 CNS
[39] = system: NCI/ADR-RES ovarian
[40] = system: COLO 205 colon
[41] = system: SW-620 colon
[42] = system: OVCAR-8 ovarian
[43] = system: IGROV1 ovarian
[44] = system: M14 melanoma
[45] = system: CAKI-1 renal
[46] = system: HCT-116 colon
[47] = system: MDA-N
[48] = system: SK-MEL-2 melanoma
[49] = system: SR leukemia
[50] = system: MALME-3M melanoma
[51] = system: RXF 393 renal
[52] = system: CCRF-CEM leukemia
[53] = system: NCI-H522 lung
[54] = system: SF-268 CNS
[55] = system: HS 578T breast
[56] = system: A498 renal
[57] = system: K-562 leukemia
[58] = system: RPMI-8226 leukemia
[59] = system: OVCAR-4 ovarian

## CC(=O)C1C(=O)C(=O)N(c2ccc(Cl)c(Cl)c2)C1=O (centres undefined)
[1]
  TGI: > 100 µM
[2]
  TGI: > 100 µM
[3]
  TGI: > 100 µM
[4]
  TGI: > 100 µM
[5]
  TGI: > 100 µM
[6]
  TGI: > 100 µM
[7]
  TGI: > 100 µM
[8]
  TGI: > 100 µM
[9]
  TGI: > 100 µM
[10]
  TGI: > 100 µM
[11]
  TGI: > 100 µM
[12]
  TGI: > 100 µM
[13]
  TGI: > 100 µM
[14]
  TGI: > 100 µM
[15]
  TGI: > 100 µM
[16]
  TGI: > 100 µM
[17]
  TGI: > 100 µM
[18]
  TGI: > 100 µM
[19]
  TGI: > 100 µM
[20]
  TGI: > 100 µM
[21]
  TGI: > 100 µM
[22]
  TGI: > 100 µM
[23]
  TGI: > 100 µM
[24]
  TGI: > 100 µM
[25]
  TGI: > 100 µM
[26]
  TGI: > 100 µM
[27]
  TGI: > 100 µM
[28]
  TGI: > 100 µM
[29]
  TGI: > 100 µM
[30]
  TGI: > 100 µM
[31]
  TGI: > 100 µM
[32]
  TGI: > 100 µM
[33]
  TGI: > 100 µM
[34]
  TGI: > 100 µM
[35]
  TGI: > 100 µM
[36]
  TGI: > 100 µM
[37]
  TGI: > 100 µM
[38]
  TGI: > 100 µM
[39]
  TGI: > 100 µM
[40]
  TGI: > 100 µM
[41]
  TGI: > 100 µM
[42]
  TGI: > 100 µM
[43]
  TGI: > 100 µM
[44]
  TGI: > 100 µM
[45]
  TGI: > 100 µM
[46]
  TGI: > 100 µM
[47]
  TGI: > 100 µM
[48]
  TGI: > 100 µM

## C=C1C(=O)OC2/C=C(/CO)C3(O)CC(O)C(C)(CC(OC(=O)/C(C)=C/C)C12)O3 (centres undefined)
[1]
  TGI: > 73 µM
[49]
  TGI: > 26.1 µM
[2]
  TGI: 42 µM
[3]
  TGI: > 57.1 µM
[4]
  TGI: > 67.8 µM
[5]
  TGI: > 67.2 µM
[6]
  TGI: 23.9 µM
[7]
  TGI: 25.9 µM
[8]
  TGI: 54.6 µM
[9]
  TGI: 41.4 µM
[10]
  TGI: > 61.7 µM
[11]
  TGI: 34.6 µM
[12]
  TGI: 48.7 µM
[13]
  TGI: 25 µM
[50]
  TGI: 29.8 µM
[14]
  TGI: > 100 µM
[15]
  TGI: 9.95 µM
[16]
  TGI: 49.5 µM
[51]
  TGI: 12.6 µM
[17]
  TGI: 63.5 µM
[52]
  TGI: > 24.6 µM
[18]
  TGI: 83.9 µM
[19]
  TGI: 61.4 µM
[20]
  TGI: 18.3 µM
[21]
  TGI: 48.5 µM
[22]
  TGI: 32.1 µM
[53]
  TGI: 7.32 µM
[54]
  TGI: > 59.9 µM
[23]
  TGI: 52.3 µM
[24]
  TGI: 29 µM
[25]
  TGI: 25 µM
[26]
  TGI: 31.6 µM
[27]
  TGI: 51.5 µM
[28]
  TGI: 30.6 µM
[29]
  TGI: 32.9 µM
[55]
  TGI: > 100 µM
[30]
  TGI: > 100 µM
[31]
  TGI: 21 µM
[32]
  TGI: 39.9 µM
[33]
  TGI: > 74.6 µM
[34]
  TGI: 42.9 µM
[56]
  TGI: 50.2 µM
[57]
  TGI: > 100 µM
[35]
  TGI: 48.9 µM
[36]
  TGI: 39 µM
[37]
  TGI: > 23 µM
[38]
  TGI: > 100 µM
[40]
  TGI: 14.7 µM
[41]
  TGI: 22.3 µM
[42]
  TGI: 45.2 µM
[43]
  TGI: 43.2 µM
[44]
  TGI: > 58.3 µM
[45]
  TGI: 11.6 µM
[58]
  TGI: 7.5 µM
[46]
  TGI: > 44.7 µM
[47]
  TGI: > 61 µM
[59]
  TGI: > 62.9 µM
[48]
  TGI: > 66.1 µM

## C=CCc1cccc2cc(C(N)=O)c(=N)oc12
[49]
  TGI: > 100 µM
[2]
  TGI: > 100 µM
[3]
  TGI: > 100 µM
[4]
  TGI: > 100 µM
[7]
  TGI: > 100 µM
[8]
  TGI: > 100 µM
[9]
  TGI: > 100 µM
[10]
  TGI: > 100 µM
[11]
  TGI: > 100 µM
[12]
  TGI: > 100 µM
[13]
  TGI: > 100 µM
[14]
  TGI: > 100 µM
[15]
  TGI: > 100 µM
[16]
  TGI: > 100 µM
[51]
  TGI: > 100 µM
[17]
  TGI: > 100 µM
[52]
  TGI: > 100 µM
[18]
  TGI: > 100 µM
[20]
  TGI: > 100 µM
[23]
  TGI: > 100 µM
[24]
  TGI: > 100 µM
[25]
  TGI: > 100 µM
[26]
  TGI: > 100 µM
[27]
  TGI: > 100 µM
[28]
  TGI: > 100 µM
[29]
  TGI: > 100 µM
[30]
  TGI: > 100 µM
[31]
  TGI: > 100 µM
[32]
  TGI: > 100 µM
[33]
  TGI: > 100 µM
[34]
  TGI: > 100 µM
[56]
  TGI: > 100 µM
[35]
  TGI: > 100 µM
[36]
  TGI: > 100 µM
[37]
  TGI: > 100 µM
[38]
  TGI: > 100 µM
[39]
  TGI: > 100 µM
[40]
  TGI: > 100 µM
[41]
  TGI: > 100 µM
[42]
  TGI: > 100 µM
[43]
  TGI: 90.3 µM
[44]
  TGI: > 100 µM
[45]
  TGI: > 100 µM
[58]
  TGI: > 100 µM
[46]
  TGI: > 100 µM
[47]
  TGI: > 100 µM
[59]
  TGI: > 100 µM
[48]
  TGI: > 100 µM
